Results: PubChem BioAssay (NCI)
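Interpolation was linear, between the two tested concentrations surrounding the appropriate level; five concentrations were tested over 48 hours in 96-well plates. At the GI50, growth is halved. At the TGI there is no net growth.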

Assays:
Assay in all cases: NCI anticancer screen, dose series, 48 h
A549 NSCLC = test system: A549 NSCLC
EKVX NSCLC = test system: EKVX NSCLC
HCT-15 colon = test system: HCT-15 colon
HOP-62 NSCLC = test system: HOP-62 NSCLC
HOP-92 NSCLC = test system: HOP-92 NSCLC
M14 melanoma = test system: M14 melanoma
NCI-H226 lung = test system: NCI-H226 lung
NCI-H522 lung = test system: NCI-H522 lung
SF-539 CNS = test system: SF-539 CNS
SK-MEL-2 melanoma = test system: SK-MEL-2 melanoma
TK-10 renal = test system: TK-10 renal
UACC-62 melanoma = test system: UACC-62 melanoma
HCC-2998 colon = test system: HCC-2998 colon
HCT-116 colon = test system: HCT-116 colon
SW-620 colon = test system: SW-620 colon
HL-60(TB) leukemia = test system: HL-60(TB) leukemia

COc1cccc2c1[C@H](OC)[C@]13O[C@@]1(C2=O)[C@H](O)[C@H](C)[C@@](O)(C(=O)[C@@H]1O[C@H]1C)[C@@H]3O
TGI (A549 NSCLC): 0.729 µM
TGI (EKVX NSCLC): 0.616 µM
TGI (HCT-15 colon): 2.07 µM
TGI (HOP-62 NSCLC): 1.59 µM
TGI (HOP-92 NSCLC): 0.723 µM
GI50 (M14 melanoma): 0.197 µM
TGI (M14 melanoma): 0.395 µM
TGI (NCI-H226 lung): 1.2 µM
TGI (NCI-H522 lung): 0.403 µM
TGI (SF-539 CNS): 0.975 µM
TGI (SK-MEL-2 melanoma): 0.384 µM
TGI (TK-10 renal): 10.7 µM
TGI (UACC-62 melanoma): 0.877 µM

C=C(Cl)C(Br)(CCl)CCC(Cl)C(C)C (stereo not given) (tested in a mixture with another compound)
TGI (A549 NSCLC): 31.9 µM
TGI (EKVX NSCLC): 29.6 µM
TGI (HCC-2998 colon): 10.7 µM
TGI (HCT-116 colon): 3.92 µM
TGI (HOP-62 NSCLC): 4.76 µM
TGI (HOP-92 NSCLC): 3.46 µM
TGI (M14 melanoma): 3.87 µM
TGI (NCI-H226 lung): 13.6 µM
TGI (NCI-H522 lung): 2.95 µM
TGI (SF-539 CNS): 3.72 µM
TGI (SK-MEL-2 melanoma): 2.97 µM
TGI (SW-620 colon): 2.96 µM
TGI (TK-10 renal): 4.05 µM
TGI (UACC-62 melanoma): 2.59 µM

Cn1c2nc(=Nc3ccc(Cl)cc3)n3ccc4ccccc4c3c2c(=O)n1-c1ccccc1
TGI (EKVX NSCLC): > 100 µM
TGI (HCC-2998 colon): > 100 µM
TGI (HCT-116 colon): > 100 µM
TGI (HCT-15 colon): > 100 µM
TGI (HL-60(TB) leukemia): > 100 µM
TGI (HOP-62 NSCLC): > 100 µM
TGI (NCI-H226 lung): > 100 µM
TGI (NCI-H522 lung): > 100 µM
TGI (SK-MEL-2 melanoma): > 100 µM
TGI (SW-620 colon): > 100 µM
TGI (TK-10 renal): > 100 µM
TGI (UACC-62 melanoma): > 100 µM

O=C1c2ccccc2N2OC3C4CCC(C4)C3C12c1ccccc1 (stereo not given)
TGI (A549 NSCLC): > 100 µM
TGI (EKVX NSCLC): > 100 µM
TGI (HCC-2998 colon): > 100 µM
TGI (HCT-116 colon): > 100 µM
TGI (HCT-15 colon): > 100 µM
TGI (HL-60(TB) leukemia): > 100 µM
TGI (HOP-62 NSCLC): > 100 µM
TGI (HOP-92 NSCLC): > 100 µM
TGI (M14 melanoma): > 100 µM
TGI (NCI-H226 lung): > 100 µM
TGI (NCI-H522 lung): > 100 µM
TGI (SF-539 CNS): > 100 µM
TGI (SW-620 colon): > 100 µM
TGI (UACC-62 melanoma): > 100 µM

CC(C)Nc1n[nH]c(=O)n1C(C)C
TGI (A549 NSCLC): > 100 µM
TGI (EKVX NSCLC): > 100 µM
TGI (HCT-116 colon): > 100 µM
TGI (HCT-15 colon): > 100 µM
TGI (HL-60(TB) leukemia): > 100 µM
TGI (HOP-62 NSCLC): > 100 µM
TGI (HOP-92 NSCLC): > 100 µM
TGI (M14 melanoma): > 100 µM
TGI (NCI-H226 lung): > 100 µM
TGI (SF-539 CNS): > 100 µM
TGI (SK-MEL-2 melanoma): > 100 µM
TGI (SW-620 colon): > 100 µM
TGI (TK-10 renal): > 100 µM
TGI (UACC-62 melanoma): > 100 µM

O=C(Cc1ccccc1)NN1C(=O)C(Cl)C1c1cc(Br)cc(Br)c1O (stereo not given)
TGI (A549 NSCLC): 76.1 µM
TGI (EKVX NSCLC): 68.1 µM
TGI (HCC-2998 colon): 31.1 µM
TGI (HCT-116 colon): 16 µM
TGI (HCT-15 colon): > 100 µM
TGI (HL-60(TB) leukemia): 10.1 µM
TGI (HOP-62 NSCLC): 54 µM
TGI (M14 melanoma): 45.6 µM
TGI (NCI-H226 lung): 36.9 µM
TGI (NCI-H522 lung): 16.9 µM
TGI (SK-MEL-2 melanoma): 36.6 µM
TGI (SW-620 colon): 30.5 µM
TGI (TK-10 renal): > 100 µM
TGI (UACC-62 melanoma): 61.6 µM

C1CSCCSS[C@@H]2CCCCC2SC1 (stereo not given in full)
TGI (A549 NSCLC): > 100 µM
TGI (EKVX NSCLC): > 100 µM
TGI (HCC-2998 colon): > 100 µM
TGI (HCT-116 colon): > 100 µM
TGI (HCT-15 colon): > 100 µM
TGI (HL-60(TB) leukemia): > 100 µM
TGI (HOP-62 NSCLC): > 100 µM
TGI (HOP-92 NSCLC): 97.8 µM
TGI (M14 melanoma): > 100 µM
TGI (NCI-H522 lung): > 100 µM
TGI (SF-539 CNS): > 100 µM
TGI (SW-620 colon): > 100 µM
TGI (TK-10 renal): > 100 µM
TGI (UACC-62 melanoma): > 100 µM

CCCCNC(=O)C1=C(C)NC(C)=C(C(=O)NCCCC)C1
TGI (A549 NSCLC): > 100 µM
TGI (EKVX NSCLC): > 100 µM
TGI (HCC-2998 colon): > 100 µM
TGI (HCT-116 colon): > 100 µM
TGI (HCT-15 colon): > 100 µM
TGI (HL-60(TB) leukemia): > 100 µM
TGI (HOP-62 NSCLC): > 100 µM
TGI (HOP-92 NSCLC): > 100 µM
TGI (M14 melanoma): > 100 µM
TGI (NCI-H226 lung): > 100 µM
TGI (SF-539 CNS): > 100 µM
TGI (SK-MEL-2 melanoma): > 100 µM
TGI (SW-620 colon): > 100 µM
TGI (TK-10 renal): > 100 µM
TGI (UACC-62 melanoma): > 100 µM
